Data set [1] concerns the target T1, ERα LBD (Homo sapiens, UniProt P03372).
T1 construct: using 7 nM GST-tagged ERα LBD (Invitrogen); purchased Invitrogen
T1 sequence (P03372 311-547 limits assumed): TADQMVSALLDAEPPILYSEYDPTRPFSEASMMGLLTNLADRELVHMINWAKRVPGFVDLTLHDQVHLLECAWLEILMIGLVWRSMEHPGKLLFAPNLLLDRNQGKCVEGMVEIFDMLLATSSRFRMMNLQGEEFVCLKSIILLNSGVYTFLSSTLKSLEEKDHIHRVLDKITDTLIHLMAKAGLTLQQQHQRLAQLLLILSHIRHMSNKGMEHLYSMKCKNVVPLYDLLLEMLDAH
Kind of data set: MARCoNI ERα-coregulator interaction peptide microarray. Format: biochemical. Conditions: 10 μM compound, 7 nM GST-tagged ERα LBD, vs apo. As for the experimental part:
The modulation of ERα-coregulator interaction by compound was analyzed using MARCoNI (Micro Array Assay for Real-time Coregulator Nuclear receptor Interaction) as described previously using 7 nM GST-tagged ERα LBD (Invitrogen).
Each condition is measured using 3 technical replicates (arrays). After incubation, unbound receptor is removed by washing, and a tiff image of each array is acquired using a CCD camera and receptor binding to each peptide on the array is quantified using dedicated software. For each condition, the three technical replicates are used to calculate mean and S.E.M. ERα binding as well as compound-induced log-fold modulation vs. control for each individual motif. Significance of the modulation is assessed using Student's t-Test.

In data set [2] the test system is MCF-7 breast cancer cells. Description: MCF-7 cell growth inhibition. It counts as cell-based. Conditions: Homo sapiens, MCF7, 120 h; 5 days treatment, cell count vs DMSO. The procedure: At the end of treatment, surviving cells were counted and normalized to control cells that were treated with vehicle (DMSO) only. (B) IC50 values were obtained by deriving logarithmic curves from the %cell survival vs. treatment dose plot.

Data set [3] deals with T47D/Y537S breast cancer cells. Description: T47D/Y537S ESR1 mutant cell growth inhibition. It counts as cell-based. Conditions: Homo sapiens, 120 h, 5 days treatment. From the text:
Wild-type ESR1, the Y537S ESR1 mutant were fused to a FLAG tag at their C-termini and cloned into the lentiviral vector pFLRu-FH [30]. Y537S mutation was first introduced into ESR1 using the QuikChange II XL Site-Directed Mutagenesis Kit (Agilent) with an ESR1-encoding plasmid (Accession number NM_000125.1, GeneCopoeia Inc.) as the template. […] To make lentiviral particles, pFLRu-FH vector DNAs (encoding ESR1(wt) and ESR1(Y537S)) were cotransfected with the packaging plasmids into HEK293T cells using Fugene 6 (Roche). At 48 hours post transfection, culture media containing different viruses were added to T47D cells in the presence of polybrene followed by 3-day puromycin selection for stable expression.
Viable cell numbers were counted with a Z Series Coulter Counter instrument (Beckman-Coulter) following manufacturer's instructions. […] IC50 values were obtained from dose-response curves for all treatments.

Data set [4] is described as follows: Drug concentrations in final plasma and tumor tissue of MCF-7 xenograft mice. It counts as in vivo. Conditions: female, Nu/Nu, mouse. As for the experimental part:
The plasma samples of 100 μL each were processed for analysis by a TSQ UPLC-MS/MS system. Aliquots of 10 μL of 0.5 ng/μl E-Tamoxifen-2C^13, N^15, 200 μL methanol, and 400 μl chloroform were added to the plasma in a 1.5 mL centrifuge tube in sequence. The sample was vortexed and stored at −20°C for 4 hours, followed by sonication in a Branson B3510MT Ultrasonic Cleaners for 30 min and centrifuged at 12000 RPM on a Heraeus Fresco 21 Refrigerated Micro Centrifuge from Thermo Fisher Scientific for 10 min. The supernatant was dried with a nitrogen gas flow and suspended in 100 μL methanol. Aliquots of 10 μL of the above processed samples were injected into a TSQ Vantage mass spectrometer connected with a heated electrospray ionization probe and a Dionex Ultimat 3000 UHPLC with a Hypersil gold column (50×2.1 mm). The probe setting and front mass spectrometer setting were controlled as follows: spray voltage 3200 voltage, auxiliary gas 10psi, vaporizer temperature 365°C, capillary temperature 300°C, sheath gas 30psi, S-lens RF amplitude 51 voltage. The flow gradient was started with initial 30% mobile phase A of water with 0.05% formic acid to 1 min, to 100% mobile phase B of acetonitrile with 0.05% formic acid at 8 min, and return to 30% mobile phase A at 13 min.

Data set [5] relates to ERα. Also on record: method as in PMID 27529700. Conditions: read-out: binding affinity to ERα, EC50; cited from earlier work.
Details of data set [6]: method as in PMID 27529700. Conditions: after ZB716 dosing; cited from earlier work.

The values below come from paper PMC5805526, “ZB716, a steroidal selective estrogen receptor degrader (SERD), is orally efficacious in blocking tumor growth in mouse xenograft models” (Oncotarget, 2018).

Read-outs that look alike come from different tables or passages of the source.

For the compound `C[C@]12CC[C@@H]3c4ccc(O)cc4C[C@@H](CCCCCCCCC[S+]([O-])CCCC(F)(F)C(F)(F)F)[C@H]3[C@@H]1CC[C@@H]2O` (some centres unmarked) [fulvestrant, reference compound], in data set [1], the “modulation of ERα interaction with coactivator motifs (NCOA family)” value is given as “strongly reduced”. For the same compound, the 50% inhibitory concentration (IC50) came to 1.5 nM in data set [2] and 32 nM in data set [3]. The concentration at 3 weeks in data set [4] (plasma, subcutaneous, 200 mg/kg/wk, read-out: Average concentration in final plasma) was 27.9 ng/mL; in data set [4] (plasma, treatment ZB716 10 mg/kg daily PO, end of study, read-out: Average concentration in final plasma) it was 18.4 ng/mL; in data set [4] (plasma, treatment ZB716 30 mg/kg daily PO, end of study, read-out: Average concentration in final plasma), 145 ng/mL; in data set [4] (tumor tissue, subcutaneous, 200 mg/kg/wk, read-out: Average concentration in tumor tissue), 160 ng/mL; in data set [4] (tumor tissue, treatment ZB716 10 mg/kg daily PO, end of study, read-out: Average concentration in tumor tissue), 67.9 ng/mL; in data set [4] (tumor tissue, treatment ZB716 30 mg/kg daily PO, end of study, read-out: Average concentration in tumor tissue), 118 ng/mL. Besides, the EC50 in data set [5] was […]. Besides, the “share of total active ingredients in mice plasma (active metabolite of ZB716)” value in data set [6] is on record as 10-20%.

A word on the IC50: it is the concentration that gives 50% inhibition. A higher IC50 goes with lower potency. Broadly, the EC50 is the concentration that produces a half-maximal response.
